According to ChEMBL document CHEMBL2057203, “Synthesis and evaluation of novel F-18 labeled 4-aminoquinazoline derivatives: potential PET imaging agents for tumor detection” (Bioorg Med Chem Lett, 2012):

How the values were obtained:
Spleen [1] = assay: Biodistribution in S180 tumor-bearing mouse spleen at 8 to 10 uCi, iv after 120 mins by gamma counting; format: ADME, organism-based; details: in vivo, 2 h
Brain [2] = assay: Biodistribution in S180 tumor-bearing mouse brain at 8 to 10 uCi, iv after 120 mins by gamma counting; format: ADME, organism-based; details: in vivo, 2 h
[3] = n-octanol-PBS partition coefficient, logP of the compound; format: physicochemical
Brain [4] = assay: Biodistribution in S180 tumor-bearing mouse brain at 8 to 10 uCi, iv after 30 mins by gamma counting; format: ADME, organism-based; details: in vivo, 0.5 h
Blood [5] = assay: Biodistribution in S180 tumor-bearing mouse blood at 8 to 10 uCi, iv after 60 mins by gamma counting; format: ADME, organism-based; details: in vivo, 1 h
Nucleic Acid [6] = assay: Ratio of drug level in tumor to muscle in S180 tumor-bearing mouse at 8 to 10 uCi, iv at 120 mins by gamma counting; format: ADME, organism-based; details: in vivo, 2 h
Muscle tissue [7] = assay: Biodistribution in S180 tumor-bearing mouse muscle at 8 to 10 uCi, iv after 60 mins by gamma counting; format: ADME, organism-based; details: in vivo, 1 h
Nucleic Acid [8] = assay: Ratio of drug level in tumor to blood in S180 tumor-bearing mouse at 8 to 10 uCi, iv at 120 mins by gamma counting; format: ADME, organism-based; details: tumour, 2 h
Stomach [9] = assay: Biodistribution in S180 tumor-bearing mouse stomach at 8 to 10 uCi, iv after 5 mins by gamma counting; format: ADME, organism-based; details: in vivo
Muscle tissue [10] = assay: Biodistribution in S180 tumor-bearing mouse muscle at 8 to 10 uCi, iv after 120 mins by gamma counting; format: ADME, organism-based; details: in vivo, 2 h
Nucleic Acid [11] = assay: Ratio of drug level in tumor to brain in S180 tumor-bearing mouse at 8 to 10 uCi, iv at 5 mins by gamma counting; format: ADME, organism-based; details: in vivo
[12] = Chemical stability in PBS after 2 hrs by radio-HPLC analysis at room temperature; format: physicochemical; details: buffer
Mus musculus [13] = assay: Biodistribution in S180 cells xenografted in mouse tumor at 8 to 10 uCi, iv after 120 mins by gamma counting; format: ADME, organism-based, Neoplasm, CCRF S-180; details: in vivo, 2 h
Lung [14] = assay: Biodistribution in S180 tumor-bearing mouse lung at 8 to 10 uCi, iv after 30 mins by gamma counting; format: ADME, organism-based; details: in vivo, 0.5 h
Mus musculus [15] = assay: Biodistribution in S180 cells xenografted in mouse tumor at 8 to 10 uCi, iv after 30 mins by gamma counting; format: ADME, organism-based, Neoplasm, CCRF S-180; details: in vivo, 0.5 h
Nucleic Acid [16] = assay: Ratio of drug level in tumor to muscle in S180 tumor-bearing mouse at 8 to 10 uCi, iv at 5 mins by gamma counting; format: ADME, organism-based; details: in vivo
Plasma = assay: Metabolic stability in mouse plasma after 2 hrs by radio-HPLC analysis; format: ADME, cell-free
Kidney [17] = assay: Biodistribution in S180 tumor-bearing mouse kidney at 8 to 10 uCi, iv after 60 mins by gamma counting; format: ADME, organism-based; details: in vivo, 1 h
Nucleic Acid [18] = assay: Ratio of drug level in tumor to brain in S180 tumor-bearing mouse at 8 to 10 uCi, iv at 60 mins by gamma counting; format: ADME, organism-based; details: in vivo, 1 h
Blood [19] = assay: Biodistribution in S180 tumor-bearing mouse blood at 8 to 10 uCi, iv after 5 mins by gamma counting; format: ADME, organism-based; details: in vivo
Muscle tissue [20] = assay: Biodistribution in S180 tumor-bearing mouse muscle at 8 to 10 uCi, iv after 30 mins by gamma counting; format: ADME, organism-based; details: in vivo, 0.5 h
Heart [21] = assay: Biodistribution in S180 tumor-bearing mouse heart at 8 to 10 uCi, iv after 120 mins by gamma counting; format: ADME, organism-based; details: in vivo, 2 h
Liver [22] = assay: Biodistribution in S180 tumor-bearing mouse liver at 8 to 10 uCi, iv after 60 mins by gamma counting; format: ADME, organism-based; details: in vivo, 1 h
Brain [23] = assay: Biodistribution in S180 tumor-bearing mouse brain at 8 to 10 uCi, iv after 5 mins by gamma counting; format: ADME, organism-based; details: in vivo
[24] = Chemical stability in PBS after 2 hrs by radio-HPLC analysis at 60 degC; format: physicochemical; details: buffer
Nucleic Acid [25] = assay: Ratio of drug level in tumor to blood in S180 tumor-bearing mouse at 8 to 10 uCi, iv at 5 mins by gamma counting; format: ADME, organism-based; details: tumour
Stomach [26] = assay: Biodistribution in S180 tumor-bearing mouse stomach at 8 to 10 uCi, iv after 60 mins by gamma counting; format: ADME, organism-based; details: in vivo, 1 h
Kidney [27] = assay: Biodistribution in S180 tumor-bearing mouse kidneys at 8 to 10 uCi, iv after 5 mins by gamma counting; format: ADME, organism-based; details: in vivo
Nucleic Acid [28] = assay: Ratio of drug level in tumor to brain in S180 tumor-bearing mouse at 8 to 10 uCi, iv at 30 mins by gamma counting; format: ADME, organism-based; details: in vivo, 0.5 h
Spleen [29] = assay: Biodistribution in S180 tumor-bearing mouse spleen at 8 to 10 uCi, iv after 5 mins by gamma counting; format: ADME, organism-based; details: in vivo
Nucleic Acid [30] = assay: Ratio of drug level in tumor to muscle in S180 tumor-bearing mouse at 8 to 10 uCi, iv at 60 mins by gamma counting; format: ADME, organism-based; details: in vivo, 1 h
Heart [31] = assay: Biodistribution in S180 tumor-bearing mouse heart at 8 to 10 uCi, iv after 5 mins by gamma counting; format: ADME, organism-based; details: in vivo
Lung [32] = assay: Biodistribution in S180 tumor-bearing mouse lung at 8 to 10 uCi, iv after 60 mins by gamma counting; format: ADME, organism-based; details: in vivo, 1 h
Blood [33] = assay: Biodistribution in S180 tumor-bearing mouse blood at 8 to 10 uCi, iv after 120 mins by gamma counting; format: ADME, organism-based; details: in vivo, 2 h
Mus musculus [34] = assay: Biodistribution in S180 cells xenografted in mouse tumor at 8 to 10 uCi, iv after 5 mins by gamma counting; format: ADME, organism-based, Neoplasm, CCRF S-180; details: in vivo
Blood [35] = assay: Biodistribution in S180 tumor-bearing mouse blood at 8 to 10 uCi, iv after 30 mins by gamma counting; format: ADME, organism-based; details: in vivo, 0.5 h
Liver [36] = assay: Biodistribution in S180 tumor-bearing mouse liver at 8 to 10 uCi, iv after 120 mins by gamma counting; format: ADME, organism-based; details: in vivo, 2 h
Kidney [37] = assay: Biodistribution in S180 tumor-bearing mouse kidney at 8 to 10 uCi, iv after 120 mins by gamma counting; format: ADME, organism-based; details: in vivo, 2 h
Nucleic Acid [38] = assay: Ratio of drug level in tumor to blood in S180 tumor-bearing mouse at 8 to 10 uCi, iv at 60 mins by gamma counting; format: ADME, organism-based; details: tumour, 1 h
Stomach [39] = assay: Biodistribution in S180 tumor-bearing mouse stomach at 8 to 10 uCi, iv after 120 mins by gamma counting; format: ADME, organism-based; details: in vivo, 2 h
Spleen [40] = assay: Biodistribution in S180 tumor-bearing mouse spleen at 8 to 10 uCi, iv after 60 mins by gamma counting; format: ADME, organism-based; details: in vivo, 1 h
Blood [41] = assay: Clearance in S180 tumor-bearing mouse blood at 8 to 10 uCi, iv at 120 mins; format: ADME, organism-based; details: in vivo, 2 h
Spleen [42] = assay: Biodistribution in S180 tumor-bearing mouse spleen at 8 to 10 uCi, iv after 30 mins by gamma counting; format: ADME, organism-based; details: in vivo, 0.5 h
Heart [43] = assay: Biodistribution in S180 tumor-bearing mouse heart at 8 to 10 uCi, iv after 60 mins by gamma counting; format: ADME, organism-based; details: in vivo, 1 h
Muscle tissue [44] = assay: Biodistribution in S180 tumor-bearing mouse muscle at 8 to 10 uCi, iv after 5 mins by gamma counting; format: ADME, organism-based; details: in vivo
Nucleic Acid [45] = assay: Ratio of drug level in tumor to brain in S180 tumor-bearing mouse at 8 to 10 uCi, iv at 120 mins by gamma counting; format: ADME, organism-based; details: in vivo, 2 h
Liver [46] = assay: Biodistribution in S180 tumor-bearing mouse liver at 8 to 10 uCi, iv after 5 mins by gamma counting; format: ADME, organism-based; details: in vivo
Liver [47] = assay: Biodistribution in S180 tumor-bearing mouse liver at 8 to 10 uCi, iv after 30 mins by gamma counting; format: ADME, organism-based; details: in vivo, 0.5 h
Kidney [48] = assay: Biodistribution in S180 tumor-bearing mouse kidney at 8 to 10 uCi, iv after 30 mins by gamma counting; format: ADME, organism-based; details: in vivo, 0.5 h
Mus musculus [49] = assay: Biodistribution in S180 cells xenografted in mouse tumor at 8 to 10 uCi, iv after 60 mins by gamma counting; format: ADME, organism-based, Neoplasm, CCRF S-180; details: in vivo, 1 h
Heart [50] = assay: Biodistribution in S180 tumor-bearing mouse heart at 8 to 10 uCi, iv after 30 mins by gamma counting; format: ADME, organism-based; details: in vivo, 0.5 h
Brain [51] = assay: Biodistribution in S180 tumor-bearing mouse brain at 8 to 10 uCi, iv after 60 mins by gamma counting; format: ADME, organism-based; details: in vivo, 1 h
Stomach [52] = assay: Biodistribution in S180 tumor-bearing mouse stomach at 8 to 10 uCi, iv after 30 mins by gamma counting; format: ADME, organism-based; details: in vivo, 0.5 h
Nucleic Acid [53] = assay: Ratio of drug level in tumor to blood in S180 tumor-bearing mouse at 8 to 10 uCi, iv at 30 mins by gamma counting; format: ADME, organism-based; details: tumour, 0.5 h
Lung [54] = assay: Biodistribution in S180 tumor-bearing mouse lungs at 8 to 10 uCi, iv after 5 mins by gamma counting; format: ADME, organism-based; details: in vivo
Nucleic Acid [55] = assay: Ratio of drug level in tumor to muscle in S180 tumor-bearing mouse at 8 to 10 uCi, iv at 30 mins by gamma counting; format: ADME, organism-based; details: in vivo, 0.5 h
Lung [56] = assay: Biodistribution in S180 tumor-bearing mouse lung at 8 to 10 uCi, iv after 120 mins by gamma counting; format: ADME, organism-based; details: in vivo, 2 h

Drug uptake (Spleen [1]): 1.04 % ID/g
Drug uptake (Brain [2]): 1.5 % ID/g
logP [3]: 1.64
Drug uptake (Brain [4]): 2.59 % ID/g
Drug uptake (Blood [5]): 1.19 % ID/g
Ratio (Nucleic Acid [6]): 1.33
Drug uptake (Muscle tissue [7]): 0.82 % ID/g
Ratio (Nucleic Acid [8]): 2.35
Drug uptake (Stomach [9]): 8.56 % ID/g
Drug uptake (Muscle tissue [10]): 1.36 % ID/g
Ratio (Nucleic Acid [11]): 0.25
Stability [12]: Stable
Drug uptake (Mus musculus [13]): 1.81 % ID/g
Drug uptake (Lung [14]): 2.99 % ID/g
Drug uptake (Mus musculus [15]): 3.32 % ID/g
Ratio (Nucleic Acid [16]): 1.89
Stability (Plasma): Stable
Drug uptake (Kidney [17]): 2.53 % ID/g
Ratio (Nucleic Acid [18]): 9.93
Drug uptake (Blood [19]): 7.56 % ID/g
Drug uptake (Muscle tissue [20]): 1.74 % ID/g
Drug uptake (Heart [21]): 1.03 % ID/g
Drug uptake (Liver [22]): 4.07 % ID/g
Drug uptake (Brain [23]): 5.51 % ID/g
Stability [24]: Stable
Ratio (Nucleic Acid [25]): 0.19
Drug uptake (Stomach [26]): 4.14 % ID/g
Drug uptake (Kidney [27]): 6.35 % ID/g
Ratio (Nucleic Acid [28]): 1.28
Drug uptake (Spleen [29]): 0.98 % ID/g
Ratio (Nucleic Acid [30]): 3.63
Drug uptake (Heart [31]): 8.68 % ID/g
Drug uptake (Lung [32]): 1.88 % ID/g
Drug uptake (Blood [33]): 0.77 % ID/g
Drug uptake (Mus musculus [34]): 1.4 % ID/g
Drug uptake (Blood [35]): 3.06 % ID/g
Drug uptake (Liver [36]): 3.4 % ID/g
Drug uptake (Kidney [37]): 1.27 % ID/g
Ratio (Nucleic Acid [38]): 2.5
Drug uptake (Stomach [39]): 1.07 % ID/g
Drug uptake (Spleen [40]): 0.77 % ID/g
CL (Blood [41]): 90%
Drug uptake (Spleen [42]): 1.93 % ID/g
Drug uptake (Heart [43]): 1.99 % ID/g
Drug uptake (Muscle tissue [44]): 0.74 % ID/g
Ratio (Nucleic Acid [45]): 1.21
Drug uptake (Liver [46]): 8.75 % ID/g
Drug uptake (Liver [47]): 7.63 % ID/g
Drug uptake (Kidney [48]): 4.16 % ID/g
Drug uptake (Mus musculus [49]): 2.98 % ID/g
Drug uptake (Heart [50]): 2.85 % ID/g
Drug uptake (Brain [51]): 0.3 % ID/g
Drug uptake (Stomach [52]): 5.94 % ID/g
Ratio (Nucleic Acid [53]): 1.08
Drug uptake (Lung [54]): 3.6 % ID/g
Ratio (Nucleic Acid [55]): 1.91
Drug uptake (Lung [56]): 1.62 % ID/g
Compound: C#Cc1cccc(Nc2ncnc3cc(OC)c(OCC[18F])cc23)c1
